# Where two headings read alike, the source gives them in different places. Starred links: 1 amine or outer side, 2 acyl side, 3 side chain; linkers in the order of their positions; H or OH if unused. Positions of bridges follow the written chain, without caps; N, C: chain ends. Non-standard residues stand in square brackets, D forms with d. Residues, ends and D or L forms follow the SMILES beside them. *: point of attachment. CH3O(CH2CH2O)11CH2CH2CO = COCCOCCOCCOCCOCCOCCOCCOCCOCCOCCOCCOCCC(=O)*; X18 = O=C(O)CCCCCCCCCCCCCCC(=O)N[C@@H](CC(=O)NCCCOCCOCCOCCCN*)C(=O)O; Trp(1-CH2COOH) = N[C@@H](Cc1cn(CC(=O)O)c2ccccc12)C(=O)O; X9 = O=C(O)CCCCCCCCCCCCCCCCC(=O)N[C@@H](CCN*)C(=O)O; C16 diacid = O=C(O)CCCCCCCCCCCCCCC(=O)*; d(cisHyp) = O=C(O)[C@H]1C[C@@H](O)CN1; βAsp = O=C(O)[C@H](CC(=O)[*:2])N[*:1]; PEG6 = NCCOCCOCCOCCOCCOCCOCCC(=O)O; Hyp = O=C(O)[C@@H]1C[C@@H](O)CN1; NMeF = CN[C@@H](Cc1ccccc1)C(=O)O; NMeE = CN[C@@H](CCC(=O)O)C(=O)O; dHyp = O=C(O)[C@H]1C[C@H](O)CN1; NMeNle = CCCC[C@H](NC)C(=O)O; Pip = O=C(O)[C@@H]1CCCCN1; NMeA = CN[C@@H](C)C(=O)O; Aun = NCCCCCCCCCCC(=O)O; Dab = NCC[C@H](N)C(=O)O; Dap = NC[C@H](N)C(=O)O; βAla = NCCC(=O)O; Sar = CNCC(=O)O
# Biological target: T1, PD-L1 (Homo sapiens, UniProt Q9NZQ7)
# T1 construct: hPDL1(19-239)-TVMV-His; made in house; host or cells: HEK293T
# T1 sequence (Q9NZQ7 with tags, fused parts or gaps): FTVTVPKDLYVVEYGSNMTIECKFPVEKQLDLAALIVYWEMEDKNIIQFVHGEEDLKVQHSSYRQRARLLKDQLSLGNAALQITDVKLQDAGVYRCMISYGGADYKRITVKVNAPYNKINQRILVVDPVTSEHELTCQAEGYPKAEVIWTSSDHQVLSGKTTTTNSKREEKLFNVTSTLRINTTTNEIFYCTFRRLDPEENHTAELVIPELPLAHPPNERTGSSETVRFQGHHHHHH
# Assay: PD-1/PD-L1 Homogenous Time-Resolved Fluorescence (HTRF) binding assay (PD-1-Ig/PD-L1-His)
# Settings: inhibition of PD-1-Ig binding to PD-L1-TVMV-His, read-out: HTRF IC50
# In short: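 HTRF competition in dPBS with 0.1% BSA and 0.05% Tween-20: 20 nM PD-1-Ig added after 15 min compound pre-incubation with 10 nM PD-L1-His, then another 15 min. Signal (665/620 nm) after 30 min with APC anti-His (20 nM) and Eu anti-Ig (1 nM).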
Structure (SMILES),IC50 (value given as range class) [µM],IC50 (value given as number) [µM]
CCCC[C@H]1C(=O)N(C)[C@@H](CCCC)C(=O)N[C@@H](CC(C)C)C(=O)N[C@H](C(=O)NCCOCCOCCOCCOCCOCCOCCC(=O)NCCCCCCCCCCC(=O)O)CSCC(=O)N[C@@H](Cc2ccc(O)cc2)C(=O)N(C)[C@@H](C)C(=O)N[C@@H](CC(N)=O)C(=O)N2CCC[C@H]2C(=O)N[C@@H](CN)C(=O)N[C@@H](CCC(N)=O)C(=O)N2C[C@H](O)C[C@@H]2C(=O)N[C@@H](Cc2c[nH]c3ccccc23)C(=O)N[C@@H](CCN)C(=O)N[C@@H](Cc2cn(CC(=O)O)c3ccccc23)C(=O)N1C [Example 11061] ({CH2CO}-Y[NMeA]NP[Dap]Q[d(cisHyp)]W[Dab][Trp(1-CH2COOH)][NMeNle][NMeNle]LC[PEG6][Aun]-OH; thioether N-14),0.1 to 1.6,–
CCCC[C@H]1C(=O)N(C)CC(=O)N[C@@H](CC(=O)O)C(=O)N[C@@H](C(C)C)C(=O)N(C)[C@@H](Cc2ccccc2)C(=O)N[C@@H](Cc2ccc(O)cc2)C(=O)N(C)[C@@H](CCC(=O)O)C(=O)N[C@@H](Cc2c[nH]c3ccccc23)C(=O)N[C@@H](Cc2ccc(O)cc2)C(=O)N[C@@H](CC(C)C)C(=O)N[C@H](C(=O)NCC(=O)NCC(=O)NCC(=O)N[C@@H](CCCCNC(=O)CCOCCOCCOCCOCCOCCOCCOCCOCCOCCOCCOCCOC)C(N)=O)CSCC(=O)N[C@@H](Cc2ccccc2)C(=O)N(C)[C@@H](Cc2ccccc2)C(=O)N1C [Example 3621] ({CH2CO}-F[NMeF][NMeNle][Sar]DV[NMeF]Y[NMeE]WYLCGGGK(CH3O(CH2CH2O)11CH2CH2CO)-NH2; thioether N-13),0.01 to 0.099,–

# Results, then the molecule that gave them:
IC50 (value given as range class) [µM],IC50 (value given as number) [µM],Structure (SMILES)
–,0.01,CCCC[C@H]1C(=O)N(C)[C@@H](CCCC)C(=O)N[C@@H](CC(C)C)C(=O)N[C@H](C(=O)NCC(=O)N[C@@H](CC(=O)O)C(=O)N[C@@H](CC(=O)NCCCOCCOCCOCCCNC(=O)C[C@H](NC(=O)CCCCCCCCCCCCCCC(=O)O)C(=O)O)C(=O)O)CSCC(=O)N[C@@H](Cc2ccc(O)cc2)C(=O)N(C)[C@@H](C)C(=O)N[C@@H](CC(N)=O)C(=O)N2CCC[C@@H]2C(=O)N[C@@H](CN)C(=O)N[C@@H](CC(C)C)C(=O)N2C[C@@H](O)C[C@@H]2C(=O)N[C@@H](Cc2c[nH]c3ccccc23)C(=O)N[C@@H](CCN)C(=O)N[C@@H](Cc2cn(CC(=O)O)c3ccccc23)C(=O)N1C [Example 11240] ({CH2CO}-Y[NMeA]N[dP][Dap]L[dHyp]W[Dab][Trp(1-CH2COOH)][NMeNle][NMeNle]LCGDD(X18)-OH; thioether N-14)
0.01 to 0.099,–,CCCC[C@H]1C(=O)N(C)[C@@H](CCCC)C(=O)N[C@@H](CCCNC(=N)N)C(=O)N[C@H](C(=O)NCC(=O)NCC(=O)N[C@@H](CC(=O)O)C(=O)N[C@@H](CCCCNC(=O)CCCCCCCCCCCCCCC(=O)O)C(N)=O)CSCC(=O)N[C@@H](Cc2ccc(O)cc2)C(=O)N(C)[C@@H](C)C(=O)N[C@@H](CC(=O)O)C(=O)N2CCC[C@H]2C(=O)N[C@@H](Cc2cnc[nH]2)C(=O)N[C@@H](CC(C)C)C(=O)N2C[C@H](O)C[C@H]2C(=O)N[C@@H](Cc2c[nH]c3ccccc23)C(=O)N[C@@H](CO)C(=O)N[C@@H](Cc2c[nH]c3ccccc23)C(=O)N1C [Example 11126] ({CH2CO}-Y[NMeA]DPHL[Hyp]WSW[NMeNle][NMeNle]RCGGDK(C16 diacid)-NH2; thioether N-14)
0.0003 to 0.0099,–,CCCC[C@H]1C(=O)N(C)[C@@H](CCCC)C(=O)N[C@@H](CC(C)C)C(=O)N[C@H](C(=O)NCC(=O)N[C@@H](CC(=O)NCCC(=O)NCC[C@H](NC(=O)CCCCCCCCCCCCCCCCC(=O)O)C(=O)O)C(=O)O)CSCC(=O)N[C@@H](Cc2ccc(O)cc2)C(=O)N2CCCC[C@H]2C(=O)N[C@@H](CC(N)=O)C(=O)N2CCC[C@H]2C(=O)N[C@@H](CN)C(=O)N[C@@H](CC(C)C)C(=O)N2C[C@H](O)C[C@H]2C(=O)N[C@@H](Cc2c[nH]c3ccccc23)C(=O)N[C@@H](CCN)C(=O)N[C@@H](Cc2cn(CC(=O)O)c3ccccc23)C(=O)N1C [Example 13160] ({CH2CO}-Y[Pip]NP[Dap]L[Hyp]W[Dab][Trp(1-CH2COOH)][NMeNle][NMeNle]LCG[βAsp][βAla]-X9; thioether N-14)
